Results on 15 compounds are retold here after patent US10221139B2, “Inhibitors of histone demethylases” (Gilead Sciences, Inc., priority 2012, dated 2019).

Holding throughout (type): biochemical
The target of one assay is T1, PLU1 (KDM5B) (Homo sapiens, UniProt Q9UGL1).
T1 construct: 1-809; host or cells: E. coli
T1 sequence (Q9UGL1 1-809): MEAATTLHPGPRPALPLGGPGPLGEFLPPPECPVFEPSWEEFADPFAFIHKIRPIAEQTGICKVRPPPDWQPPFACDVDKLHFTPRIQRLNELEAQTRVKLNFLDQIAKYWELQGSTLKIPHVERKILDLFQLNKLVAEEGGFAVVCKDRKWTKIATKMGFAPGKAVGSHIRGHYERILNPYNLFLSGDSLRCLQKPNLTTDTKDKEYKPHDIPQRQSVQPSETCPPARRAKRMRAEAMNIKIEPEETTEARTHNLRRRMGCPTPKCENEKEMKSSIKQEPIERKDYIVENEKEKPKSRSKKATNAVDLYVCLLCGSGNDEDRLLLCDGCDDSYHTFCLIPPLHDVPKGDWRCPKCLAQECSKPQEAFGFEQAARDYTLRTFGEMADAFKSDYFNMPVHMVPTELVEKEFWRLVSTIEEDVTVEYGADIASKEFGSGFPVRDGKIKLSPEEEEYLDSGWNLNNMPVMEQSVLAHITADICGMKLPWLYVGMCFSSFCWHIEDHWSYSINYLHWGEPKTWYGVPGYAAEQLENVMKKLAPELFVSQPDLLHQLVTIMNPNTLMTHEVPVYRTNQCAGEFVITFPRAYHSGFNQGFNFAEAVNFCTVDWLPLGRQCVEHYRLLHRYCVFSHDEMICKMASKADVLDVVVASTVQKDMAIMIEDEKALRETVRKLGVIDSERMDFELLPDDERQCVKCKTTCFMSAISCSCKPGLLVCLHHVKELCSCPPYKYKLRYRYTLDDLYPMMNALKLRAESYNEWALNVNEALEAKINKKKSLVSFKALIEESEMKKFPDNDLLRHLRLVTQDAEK
The assay is described as follows: Histone lysine demethylase AlphaLISA assay, PLU1. As to conditions: substrate H3K4M3B. In outline:
(§1)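 Each enzyme was preincubated 10 min, then 10 min with compound (added in 3% DMSO solution in enzyme buffer) before substrate addition and reaction at room temperature. Demethylation was detected by AlphaLISA: acceptor beads 60 min in the dark, then streptavidin donor beads, incubated and read; IC50 values determined.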
(In general: Alpha assays give light when donor and acceptor beads are brought close together.)

Another assay deals with T2, UTX (KDM6A) (Homo sapiens, UniProt O15550).
T2 construct: 919-1401; host or cells: E. coli
The assay can be described thus: Histone lysine demethylase AlphaLISA assay, UTX. The note with it: substrate BK27M3. In outline:
as §1

In another assay the target is T3, GASC1 (KDM4C, JMJD2C) (Homo sapiens, UniProt Q9H3R0).
T3 construct: 1-349; host or cells: E. coli
T3 sequence (Q9H3R0 1-349): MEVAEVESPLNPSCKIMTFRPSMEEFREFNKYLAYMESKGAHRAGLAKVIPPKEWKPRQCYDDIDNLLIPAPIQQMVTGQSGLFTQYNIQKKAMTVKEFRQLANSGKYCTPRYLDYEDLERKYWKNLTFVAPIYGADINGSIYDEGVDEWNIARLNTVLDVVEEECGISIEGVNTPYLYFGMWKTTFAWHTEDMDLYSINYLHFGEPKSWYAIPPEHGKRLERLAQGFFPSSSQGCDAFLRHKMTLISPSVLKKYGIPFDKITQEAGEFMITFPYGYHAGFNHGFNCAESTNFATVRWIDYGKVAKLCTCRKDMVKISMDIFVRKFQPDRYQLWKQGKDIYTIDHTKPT
The assay is described as follows: Histone lysine demethylase AlphaLISA assay, GASC1. The note with it: substrate BK9M3. In outline:
as §1

A further assay has as its target T4, FBXL10 (KDM2B) (Homo sapiens, UniProt Q8NHM5).
T4 construct: 1-650; purchased BPS, Bioscience, US; host or cells: Bac (baculovirus)
T4 sequence (Q8NHM5 1-650): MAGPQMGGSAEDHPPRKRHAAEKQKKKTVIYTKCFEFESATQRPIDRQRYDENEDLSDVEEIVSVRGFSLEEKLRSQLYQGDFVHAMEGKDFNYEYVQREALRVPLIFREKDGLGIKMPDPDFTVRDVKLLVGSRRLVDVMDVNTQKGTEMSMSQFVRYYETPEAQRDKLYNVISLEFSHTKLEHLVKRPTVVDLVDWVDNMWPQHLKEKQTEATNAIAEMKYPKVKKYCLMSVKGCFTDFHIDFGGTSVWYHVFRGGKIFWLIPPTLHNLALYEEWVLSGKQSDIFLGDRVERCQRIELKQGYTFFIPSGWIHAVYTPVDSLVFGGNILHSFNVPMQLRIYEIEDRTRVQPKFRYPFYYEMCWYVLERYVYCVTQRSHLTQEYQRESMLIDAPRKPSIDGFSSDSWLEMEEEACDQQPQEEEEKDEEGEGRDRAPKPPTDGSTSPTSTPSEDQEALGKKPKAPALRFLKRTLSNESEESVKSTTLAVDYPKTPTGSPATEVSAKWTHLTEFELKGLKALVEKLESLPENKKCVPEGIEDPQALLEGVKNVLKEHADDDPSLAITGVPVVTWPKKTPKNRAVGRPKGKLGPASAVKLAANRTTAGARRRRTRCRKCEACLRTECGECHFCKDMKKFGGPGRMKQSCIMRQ
The assay can be described thus: Histone lysine demethylase AlphaLISA assay, FBXL10. As to conditions: substrate BH3K36M2. How it is done: Example 2: Histone Lysine Demethylase AlphaLISA Assays for IC50 Value Determination
Assays are performed analogously to the protocol described by Perkin Elmer (Roy et al. Perkin Elmer Technical Note: AlphaLISA #12, April 2011).
Enzymes are dissolved in enzyme buffer and incubated for 10 min before 5 μL is added to 5 μL 3% DMSO solutions of compounds in enzyme buffer. Incubated for another 10 minutes, before 5 μL substrate solution is added and the reaction mixture is incubated at room temperature for the given period. 10 μL acceptor beads, suspended at given dilutions in Epigenetic Buffer (Perkin Elmer AL008) from stock, are added and the suspension is incubated 60 minutes in the dark at room temperature, before 10 μL suspension (at the given dilutions in Epigenetic Buffer) of streptavidin donor beads (Perkin Elmer 6760002) in Epigenetic Buffer is added. After incubation at room temperature in the dark the plates are read. Reaction conditions are seen in Table 2b.

Bounds are passed on as bounds.

T2 sequence (O15550 919-1401): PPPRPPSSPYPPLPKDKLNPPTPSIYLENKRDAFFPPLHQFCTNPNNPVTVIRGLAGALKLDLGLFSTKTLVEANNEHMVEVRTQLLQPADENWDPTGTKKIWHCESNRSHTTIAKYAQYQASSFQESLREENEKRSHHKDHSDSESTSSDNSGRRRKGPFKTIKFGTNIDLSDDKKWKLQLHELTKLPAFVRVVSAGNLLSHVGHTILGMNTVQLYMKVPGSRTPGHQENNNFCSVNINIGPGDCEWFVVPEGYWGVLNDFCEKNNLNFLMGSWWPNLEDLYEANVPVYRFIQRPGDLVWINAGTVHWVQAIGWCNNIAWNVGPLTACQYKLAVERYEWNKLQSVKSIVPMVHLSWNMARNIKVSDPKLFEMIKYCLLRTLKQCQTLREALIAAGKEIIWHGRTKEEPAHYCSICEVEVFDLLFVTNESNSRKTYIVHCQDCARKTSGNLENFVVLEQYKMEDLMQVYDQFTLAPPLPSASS

What is called IC50 is the concentration that inhibits the measured activity by half. Low readings indicate higher potency, high ones lower potency. Take `CCCCCCCCCCCCCCCC(=O)OCC(COC(=O)CCCCCCCCCCCCCCC)OC(=O)c1ccnc(CNCC(=O)N(CC)CCN(C)C)c1` [#68, 2-(2-{[({[2-(dimethylamino)ethyl](ethyl)carbamoyl}methyl)amino]methyl}pyridine-4-carbonyloxy)-3-(hexadecanoyloxy)propyl hexadecanoate]: the IC50 against PLU1 (KDM5B) is 100 to 1000 nM; against UTX (KDM6A), under 100 nM; at GASC1 (KDM4C, JMJD2C), 100 to 1000 nM; against FBXL10 (KDM2B) it was at least 1000 nM.

In the case of `CCN(CCN(C)C)C(=O)CNCc1cc(C(=O)OC)ccn1` [#70, methyl 2-{[({[2-(dimethylamino)ethyl](ethyl)carbamoyl}methyl)amino]methyl}pyridine-4-carboxylate], the IC50 against PLU1 (KDM5B) is under 100 nM; against UTX (KDM6A) it was under 100 nM; against GASC1 (KDM4C, JMJD2C), under 100 nM; at FBXL10 (KDM2B) it was at least 1000 nM.

Take `CCN(CCN(C)C)C(=O)CNCc1cc(C(=O)N(C)S(C)(=O)=O)ccn1` [#71, 2-{[({[2-(dimethylamino)ethyl](ethyl)carbamoyl}methyl)amino]methyl}-N-methanesulfonyl-N-methylpyridine-4-carboxamide]: the concentration for half-maximal inhibition (IC50) at PLU1 (KDM5B) is under 100 nM; against UTX (KDM6A), at least 1000 nM; at GASC1 (KDM4C, JMJD2C) it was under 100 nM; against FBXL10 (KDM2B), 100 to 1000 nM.

As to `CCN(CCN(C)C)C(=O)CNCc1cc(C(=O)N2CCOC2=O)ccn1` [#72, N-[2-(dimethylamino)ethyl]-N-ethyl-2-({[4-(2-oxo-1,3-oxazolidine-3-carbonyl)pyridin-2-yl]methyl}amino)acetamide], the IC50 against PLU1 (KDM5B) is under 100 nM; against GASC1 (KDM4C, JMJD2C) it was under 100 nM; on FBXL10 (KDM2B), at least 1000 nM.

Regarding `O=C(O)c1ccnc(CN2CCC2)c1` [#79, 2-(azetidin-1-ylmethyl)pyridine-4-carboxylic acid], the concentration for half-maximal inhibition (IC50) at PLU1 (KDM5B) is at least 1000 nM; at GASC1 (KDM4C, JMJD2C) it was at least 1000 nM; against FBXL10 (KDM2B), at least 1000 nM.

`CCN(CCN(C)C)C(=O)CNCc1cc(C(=O)OCC(F)(F)F)ccn1` [#80, 2,2,2-trifluoroethyl 2-{[({[2-(dimethylamino)ethyl](ethyl)carbamoyl}methyl)amino]methyl}pyridine-4-carboxylate]: the IC50 was under 100 nM on PLU1 (KDM5B); under 100 nM against GASC1 (KDM4C, JMJD2C); at least 1000 nM against FBXL10 (KDM2B).

With `CCN(CC(=O)N1CCCCC1)Cc1cc(C(=O)O)ccn1` [#81, 2-({ethyl[2-oxo-2-(piperidin-1-yl)ethyl]amino}methyl)pyridine-4-carboxylic acid], the IC50 lay in the range of 100 to 1000 nM on PLU1 (KDM5B); 100 to 1000 nM against GASC1 (KDM4C, JMJD2C); 100 to 1000 nM against FBXL10 (KDM2B).

Turning to `CCCCN(CC(=O)N1CCCCC1)Cc1cc(C(=O)O)ccn1` [#82, 2-({butyl[2-oxo-2-(piperidin-1-yl)ethyl]amino}methyl)pyridine-4-carboxylic acid], the IC50 at PLU1 (KDM5B) was at least 1000 nM; on GASC1 (KDM4C, JMJD2C), at least 1000 nM; against FBXL10 (KDM2B), 100 to 1000 nM.

In the case of `O=C(O)c1ccnc(CN(CC(=O)N2CCCCC2)Cc2ccccc2)c1` [#83, 2-({benzyl[2-oxo-2-(piperidin-1-yl)ethyl]amino}methyl)pyridine-4-carboxylic acid], the IC50 is at least 1000 nM against PLU1 (KDM5B); at least 1000 nM at GASC1 (KDM4C, JMJD2C); 100 to 1000 nM at FBXL10 (KDM2B).

Consider `CC(C)CN(CC(=O)N1CCCCC1)Cc1cc(C(=O)O)ccn1` [#86, 2-{[(2-methylpropyl)[2-oxo-2-(piperidin-1-yl)ethyl]amino]methyl}pyridine-4-carboxylic acid], for which the concentration for half-maximal inhibition (IC50) at PLU1 (KDM5B) is at least 1000 nM; against UTX (KDM6A), under 100 nM; against GASC1 (KDM4C, JMJD2C), at least 1000 nM; at FBXL10 (KDM2B), 100 to 1000 nM.

Regarding `CCCN(CC(=O)N1CCCCC1)Cc1cc(C(=O)O)ccn1` [#87, 2-({[2-oxo-2-(piperidin-1-yl)ethyl](propyl)amino}methyl)pyridine-4-carboxylic acid], the IC50 against PLU1 (KDM5B) was 100 to 1000 nM; at UTX (KDM6A) it was under 100 nM; against GASC1 (KDM4C, JMJD2C) it was at least 1000 nM; on FBXL10 (KDM2B), 100 to 1000 nM.

Regarding `CC(C)N(CC(=O)N1CCCCC1)Cc1cc(C(=O)O)ccn1` [#88, 2-({[2-oxo-2-(piperidin-1-yl)ethyl](propan-2-yl)amino}methyl)pyridine-4-carboxylic acid], the half-maximal inhibitory concentration (IC50) is at least 1000 nM against PLU1 (KDM5B); under 100 nM on UTX (KDM6A); at least 1000 nM on GASC1 (KDM4C, JMJD2C); 100 to 1000 nM against FBXL10 (KDM2B).

With `CCN(CCN(C)C)C(=O)CNCc1cc(C(=O)OCCF)ccn1` [#90, 2-fluoroethyl 2-{[({[2-(dimethylamino)ethyl](ethyl)carbamoyl}methyl)amino]methyl}pyridine-4-carboxylate], the IC50 against PLU1 (KDM5B) is under 100 nM; against UTX (KDM6A), under 100 nM; against GASC1 (KDM4C, JMJD2C), 100 to 1000 nM; against FBXL10 (KDM2B), at least 1000 nM.

On to `CCN(CCN(C)C)C(=O)CNCc1cc(C(=O)OCC(F)F)ccn1` [#91, 2,2-difluoroethyl 2-{[({[2-(dimethylamino)ethyl](ethyl)carbamoyl}methyl)amino]methyl}pyridine-4-carboxylate], for which the IC50 against PLU1 (KDM5B) is under 100 nM; against UTX (KDM6A) it was under 100 nM; against GASC1 (KDM4C, JMJD2C), under 100 nM; against FBXL10 (KDM2B) it was at least 1000 nM.

`CC(C)C[C@H](NCc1cc(C(=O)O)ccn1)C(=O)NC(C)(C)C` [#92, 2-({[(1S)-1-(tert-butylcarbamoyl)-3-methylbutyl]amino}methyl)pyridine-4-carboxylic acid]: the IC50 was at least 1000 nM against PLU1 (KDM5B); 100 to 1000 nM against UTX (KDM6A); at least 1000 nM on GASC1 (KDM4C, JMJD2C); 100 to 1000 nM against FBXL10 (KDM2B).
